Assay results taken from paper PMC4352194, “Physicochemical and Biological Properties of Oxovanadium(IV), Cobalt(II) and Nickel(II) Complexes with Oxydiacetate Anions” (Biological Trace Element Research, 2014).

Key:
[1] = test system: Bacillus subtilis; assay: Disc diffusion test; assay type: cell-based; conditions: B. subtilis, 100 μg/disc
Method: (§1) The antimicrobial activity of complex compounds was assessed against Bacillus subtilis, Escherichia coli, Enterococcus faecalis, Pseudomonas aeruginosa, Staphylococcus aureus, Staphylococcus epidermidis (all strains were from the collection of the Department of Molecular Biology, University of Gdańsk). All bacteria were cultured in the Luria-Bertani (LB) broth at 310.15 K in the air with shaking. LB agar plates were prepared by the supplementation of LB broth with the 1.5 % bacteriological agar. Stock solutions of complex compounds were freshly prepared in the LB broth at the concentration of 25 mg/mL. Aliquots of 0.05 mL of bacterial culture at the optical density at 600 nm of 0.1 (inoculum 5 × 10^6 cells per plate) were spread on LB agar plates. Sterile filter paper discs (of 6 mm diameter) were impregnated with solutions of complex compounds prepared in the deionized water at the following amounts: 0.1, 0.2, 0.5 and 1.0 mg per disc and placed on agar plates. After an overnight incubation at 310.15 K, zones of bacterial growth inhibition were measured. Neomycin at the amount of 0.1 mg/disc was used as a control.

[2] = test system: Enterococcus faecalis; assay: Disc diffusion test; assay type: cell-based; conditions: E. faecalis, 100 μg/disc
Method: as §1

[3] = test system: Escherichia coli; assay: Disc diffusion test; assay type: cell-based; conditions: E. coli, 100 μg/disc
Method: as §1

[4] = test system: Pseudomonas aeruginosa; assay: Disc diffusion test; assay type: cell-based; conditions: P. aeruginosa, 100 μg/disc
Method: as §1

[5] = test system: Staphylococcus aureus; assay: Disc diffusion test; assay type: cell-based; conditions: S. aureus, 100 μg/disc
Method: as §1

[6] = test system: Staphylococcus epidermidis; assay: Disc diffusion test; assay type: cell-based; conditions: S. epidermidis, 100 μg/disc
Method: as §1

[7] = design: method as in earlier work; conditions: fixed in the calculations; cited from earlier work
[8] = design: method as in doi:10.1016/j.molstruc.2011.03.036, PMID 23047227; conditions: cited from earlier work
[9] = Potentiometric titration: stability constants of the complexes; assay type: physicochemical; conditions: PT, 298.15 K, aqueous
Method: (§2) Potentiometric titrations were performed in a 30-mL thermostated (298.15 ± 0.10 K) cell using the Cerko Lab System microtitration unit fitted with a 5-mL Hamilton’s syringe, a pH combined electrode (Schott–BlueLine 16 pH type) and a self-made measuring cell equipped with a magnetic stirrer. The temperature was controlled using the Lauda E100 circulation thermostat. In aqueous solutions, the electrode was calibrated according to IUPAC recommendations. In binary systems (10–50 % v/v DMSO:H2O), the electrode calibration was performed by the Gran’s method using the GLEE program. For this purpose, the HClO4 solution was titrated with tetrabutylammonium hydroxide (Bu4NOH) solution both at the same mole fraction of organic solvent (10–50 (v/v%) DMSO). The syringe was calibrated by a weight method. The double distilled water of conductivity approximately 0.18 μS/cm was used throughout for the preparation of aqueous solutions. Other reagents used in the experiments were purchased from Sigma-Aldrich. They were as follows: VOSO4 (≥99.99 % trace metals basis), Co(NO3)2·6H2O (ACS reagent, ≥99 %), Ni(NO3)2·6H2O (99.999 %) and 2,2′-oxydiacetic acid (H2ODA, 98 %). All the solutions were prepared immediately before measurements. The compositions of the titrand solutions used in the experiments were as follows: (a) 2 mM Ni^2+ (Co^2+ or VO^2+), 5 mM H2ODA, 5 mM HClO4, (b) 2.5 mM H2ODA (for binary systems). The solutions (Vo = 5.0 mL) were potentiometrically titrated with the standardized 0.098 M NaOH solution or with the standardized 0.025 M Bu4NOH solution (in binary systems) in the pH range from 2.5 to 11.0. The titrant was added to the titrand in increments of 0.01 mL, with a pause of 60 s. Each titration was repeated at least three times in order to check the reproducibility of the data. The stability constants of the complexes were determined using the Hyperquad2008 program. The concentration distribution of various complex species existing in the solution as a function of pH was obtained using the HySS program.
The equilibrium constants defined by Eqs. (1) and (2):1 pM+qL+rH=MpLqHr 2 βpqr=MpLqHr/M^pL^qH^r (where M is VO^2+, Co^2+ or Ni^2+, L denotes the oxydiacetate ion, H is the proton and p, q, r are stoichiometric coefficients for the reaction) were refined by least-squares calculations using the Hyperquad2008 (version 5.2.19) computer program. For the oxovanadium(IV) system, the formation of the hydroxo complexes of VO(IV) were taken into account in the calculations of the stability constants. The following formation constants were taken from the literature and were fixed: logβ 10–1 = −5.94, logβ 20–2 = −6.95 and logβ 10–3 = −18. The equilibrium models presented in Table 2 have given the best fitting of the calculated data to the experimental ones.

[10] = Potentiometric titration: dissociation constants of oxydiacetic acid in DMSO-water; assay type: physicochemical; conditions: 298.15 K
Method: as §2
To assess the influence of DMSO as a co-solvent on the stability of the complexes, its effect on the dissociation constants of H2ODA was investigated potentiometrically in the first instance. The representative pH-titration curves for oxydiacetic acid at 298.15 K in 0, 30 and 50 % (v/v) DMSO-water binary systems are shown in Fig. 2, whereas the calculated dissociation constants are collected in Table 3. In the calculations, the ionization constants of the solvents, pK s, were taken from the literature.

With `NC[C@@H]1O[C@H](O[C@H]2[C@@H](O)[C@H](O[C@@H]3[C@@H](O)[C@H](N)C[C@H](N)[C@H]3O[C@H]3O[C@H](CN)[C@@H](O)[C@H](O)[C@H]3N)O[C@@H]2CO)[C@H](N)[C@@H](O)[C@@H]1O` [Neo, Neomycin, reference compound] the “Zone of growth inhibition” value [1] was 21 mm, the “Zone of growth inhibition” value [2] was 16 mm and the “Zone of growth inhibition” value [3] was 15 mm. For the same molecule, the “Zone of growth inhibition” value [4] was 17 mm, the “Zone of growth inhibition” value [5] was 18 mm and the “Zone of growth inhibition” value [6] was 25 mm.

For `[O]=[V+2]` [VO(IV)], the “logβ 10–1 (hydroxo complex formation constant)” value [7] is given as −5.94, the “logβ 10–3 (hydroxo complex formation constant)” value [7] is given as −18 and the “logβ 20–2 (hydroxo complex formation constant)” value [7] is given as −6.95.

For `O.O.O.O.O.O=C([O-])COCC(=O)[O-].[Cu+2].c1ccc(-c2ccccn2)nc1` [[Cu(ODA)(bipy)(H2O)]∙4H2O], the SOD activity [8] is given as “considerable SOD activity”.

With `O=C(O)COCC(=O)O` [H2ODA, 2,2′-oxydiacetic acid] the “logβ 011 (LH)” value ([9]; fitted in the M = Co^2+ system) was 4.16 (±0.09), the “logβ 012 (LH2)” value ([9]; fitted in the M = Co^2+ system) was 7.26 (±0.06) and the “logβ 011 (LH)” value ([9]; fitted in the M = Ni^2+ system) was 4.12 (±0.01). The “logβ 012 (LH2)” value ([9]; fitted in the M = Ni^2+ system) was 6.97 (±0.01), the “logβ 011 (LH)” value ([9]; fitted in the M = VO^2+ system) was 4.20 (±0.05) and the “logβ 012 (LH2)” value ([9]; fitted in the M = VO^2+ system) was 7.25 (±0.05). The “pK a1 (H2ODA = HODA^− + H^+)” value ([10]; DMSO 0 % v/v) was 2.90 (±0.05), the “pK a2 (HODA^− = ODA^2− + H^+)” value ([10]; DMSO 0 % v/v) was 4.28 (±0.08) and the “pK a1 (H2ODA = HODA^− + H^+)” value ([10]; DMSO 10 % v/v) was 3.11 (±0.04). The “pK a2 (HODA^− = ODA^2− + H^+)” value ([10]; DMSO 10 % v/v) was 4.52 (±0.02), the “pK a1 (H2ODA = HODA^− + H^+)” value ([10]; DMSO 20 % v/v) was 3.28 (±0.02) and the “pK a2 (HODA^− = ODA^2− + H^+)” value ([10]; DMSO 20 % v/v) was 4.69 (±0.02). The “pK a1 (H2ODA = HODA^− + H^+)” value ([10]; DMSO 30 % v/v) was 3.42 (±0.04), the “pK a2 (HODA^− = ODA^2− + H^+)” value ([10]; DMSO 30 % v/v) was 4.91 (±0.02) and the “pK a1 (H2ODA = HODA^− + H^+)” value ([10]; DMSO 40 % v/v) was 3.61 (±0.03). The “pK a2 (HODA^− = ODA^2− + H^+)” value ([10]; DMSO 40 % v/v) was 5.16 (±0.02), the “pK a1 (H2ODA = HODA^− + H^+)” value ([10]; DMSO 50 % v/v) was 3.76 (±0.03) and the “pK a2 (HODA^− = ODA^2− + H^+)” value ([10]; DMSO 50 % v/v) was 5.46 (±0.03).

For `Cc1ccncc1.O.O.O.O=C([O-])COCC(=O)[O-].[Cu+2]` [[Cu(ODA)(4-pic)(H2O)]∙2H2O], the SOD activity [8] is listed as “considerable SOD activity”.
